# PubChem BioAssay (NCI)
#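 Following 48 hours of exposure in 96-well plates, responses at five concentrations were used to interpolate endpoints linearly. TGI is the concentration that stops growth completely.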
# Key:
# Assay in all cases: NCI tumour cell line growth inhibition, 48 h
# 786-0 renal = tested on: 786-0 renal
# A498 renal = tested on: A498 renal
# A549 NSCLC = tested on: A549 NSCLC
# ACHN renal = tested on: ACHN renal
# BT-549 breast = tested on: BT-549 breast
# CAKI-1 renal = tested on: CAKI-1 renal
# CCRF-CEM leukemia = tested on: CCRF-CEM leukemia
# COLO 205 colon = tested on: COLO 205 colon
# DU-145 prostate = tested on: DU-145 prostate
# EKVX NSCLC = tested on: EKVX NSCLC
# HCC-2998 colon = tested on: HCC-2998 colon
# HCT-116 colon = tested on: HCT-116 colon
# HCT-15 colon = tested on: HCT-15 colon
# HL-60(TB) leukemia = tested on: HL-60(TB) leukemia
# HOP-62 NSCLC = tested on: HOP-62 NSCLC
# HOP-92 NSCLC = tested on: HOP-92 NSCLC
# HT29 colon = tested on: HT29 colon
# IGROV1 ovarian = tested on: IGROV1 ovarian
# K-562 leukemia = tested on: K-562 leukemia
# KM12 colon = tested on: KM12 colon
# LOX IMVI melanoma = tested on: LOX IMVI melanoma
# M14 melanoma = tested on: M14 melanoma
# MALME-3M melanoma = tested on: MALME-3M melanoma
# MCF7 breast = tested on: MCF7 breast
# MDA-MB-231 breast = tested on: MDA-MB-231 breast
# MDA-MB-435 = tested on: MDA-MB-435
# MDA-N = tested on: MDA-N
# MOLT-4 leukemia = tested on: MOLT-4 leukemia
# NCI-H226 lung = tested on: NCI-H226 lung
# NCI-H23 lung = tested on: NCI-H23 lung
# NCI-H460 lung = tested on: NCI-H460 lung
# NCI-H522 lung = tested on: NCI-H522 lung
# NCI/ADR-RES ovarian = tested on: NCI/ADR-RES ovarian
# OVCAR-3 ovarian = tested on: OVCAR-3 ovarian
# OVCAR-4 ovarian = tested on: OVCAR-4 ovarian
# OVCAR-5 ovarian = tested on: OVCAR-5 ovarian
# OVCAR-8 ovarian = tested on: OVCAR-8 ovarian
# PC-3 prostate = tested on: PC-3 prostate
# RPMI-8226 leukemia = tested on: RPMI-8226 leukemia
# RXF 393 renal = tested on: RXF 393 renal
# SF-268 CNS = tested on: SF-268 CNS
# SF-295 CNS = tested on: SF-295 CNS
# SF-539 CNS = tested on: SF-539 CNS
# SK-MEL-2 melanoma = tested on: SK-MEL-2 melanoma
# SK-MEL-28 melanoma = tested on: SK-MEL-28 melanoma
# SK-MEL-5 melanoma = tested on: SK-MEL-5 melanoma
# SK-OV-3 ovarian = tested on: SK-OV-3 ovarian
# SN12C renal = tested on: SN12C renal
# SNB-19 CNS = tested on: SNB-19 CNS
# SR leukemia = tested on: SR leukemia
# SW-620 colon = tested on: SW-620 colon
# T-47D breast = tested on: T-47D breast
# TK-10 renal = tested on: TK-10 renal
# U251 CNS = tested on: U251 CNS
# UACC-257 melanoma = tested on: UACC-257 melanoma
# UACC-62 melanoma = tested on: UACC-62 melanoma
# UO-31 renal = tested on: UO-31 renal
# SNB-75 CNS = tested on: SNB-75 CNS
smiles,measurement,setting,value
CN(C)CCCNc1ncnc2c1ncn2C1OC(CO)C(O)C1O (stereo not given),TGI,786-0 renal,> 100 µM
same,TGI,A498 renal,> 100 µM
same,TGI,A549 NSCLC,> 100 µM
same,TGI,ACHN renal,> 100 µM
same,TGI,BT-549 breast,> 100 µM
same,TGI,CAKI-1 renal,> 100 µM
same,TGI,CCRF-CEM leukemia,> 100 µM
same,TGI,COLO 205 colon,> 100 µM
same,TGI,DU-145 prostate,> 100 µM
same,TGI,EKVX NSCLC,> 100 µM
same,TGI,HCC-2998 colon,> 100 µM
same,TGI,HCT-116 colon,> 100 µM
same,TGI,HCT-15 colon,> 100 µM
same,TGI,HL-60(TB) leukemia,> 100 µM
same,TGI,HOP-62 NSCLC,> 100 µM
same,TGI,HOP-92 NSCLC,> 100 µM
same,TGI,HT29 colon,> 100 µM
same,TGI,IGROV1 ovarian,> 100 µM
same,TGI,K-562 leukemia,> 100 µM
same,TGI,KM12 colon,> 100 µM
same,TGI,LOX IMVI melanoma,> 100 µM
same,TGI,M14 melanoma,> 100 µM
same,TGI,MALME-3M melanoma,> 100 µM
same,TGI,MCF7 breast,> 100 µM
same,TGI,MDA-MB-231 breast,> 100 µM
same,TGI,MDA-MB-435,> 100 µM
same,TGI,MDA-N,> 100 µM
same,TGI,MOLT-4 leukemia,> 100 µM
same,TGI,NCI-H226 lung,> 100 µM
same,TGI,NCI-H23 lung,> 100 µM
same,TGI,NCI-H460 lung,> 100 µM
same,TGI,NCI-H522 lung,> 100 µM
same,TGI,NCI/ADR-RES ovarian,> 100 µM
same,TGI,OVCAR-3 ovarian,> 100 µM
same,TGI,OVCAR-4 ovarian,> 100 µM
same,TGI,OVCAR-5 ovarian,> 100 µM
same,TGI,OVCAR-8 ovarian,> 100 µM
same,TGI,PC-3 prostate,> 100 µM
same,TGI,RPMI-8226 leukemia,> 100 µM
same,TGI,RXF 393 renal,> 100 µM
same,TGI,SF-268 CNS,> 100 µM
same,TGI,SF-295 CNS,> 100 µM
same,TGI,SF-539 CNS,> 100 µM
same,TGI,SK-MEL-2 melanoma,> 100 µM
same,TGI,SK-MEL-28 melanoma,> 100 µM
same,TGI,SK-MEL-5 melanoma,> 100 µM
same,TGI,SK-OV-3 ovarian,> 100 µM
same,TGI,SN12C renal,> 100 µM
same,TGI,SNB-19 CNS,> 100 µM
same,TGI,SR leukemia,> 100 µM
same,TGI,SW-620 colon,> 100 µM
same,TGI,T-47D breast,> 100 µM
same,TGI,TK-10 renal,> 100 µM
same,TGI,U251 CNS,> 100 µM
same,TGI,UACC-257 melanoma,> 100 µM
same,TGI,UACC-62 melanoma,> 100 µM
same,TGI,UO-31 renal,> 100 µM
COC(=O)C1=COC(OC2OC(CO)C(O)C(O)C2O)C2C3CN4CCc5c([nH]c6ccccc56)C4(CC12)O3 (stereo not given),TGI,786-0 renal,> 100 µM
same,TGI,A498 renal,> 100 µM
same,TGI,A549 NSCLC,> 100 µM
same,TGI,ACHN renal,> 100 µM
same,TGI,BT-549 breast,> 100 µM
same,TGI,CAKI-1 renal,> 100 µM
same,TGI,COLO 205 colon,> 100 µM
same,TGI,DU-145 prostate,> 100 µM
same,TGI,EKVX NSCLC,> 100 µM
same,TGI,HCT-116 colon,> 100 µM
same,TGI,HCT-15 colon,> 100 µM
same,TGI,HL-60(TB) leukemia,> 100 µM
same,TGI,HOP-62 NSCLC,> 100 µM
same,TGI,HT29 colon,> 100 µM
same,TGI,IGROV1 ovarian,> 100 µM
same,TGI,K-562 leukemia,> 100 µM
same,TGI,KM12 colon,> 100 µM
same,TGI,LOX IMVI melanoma,> 100 µM
same,TGI,M14 melanoma,> 100 µM
same,TGI,MALME-3M melanoma,> 100 µM
same,TGI,MCF7 breast,> 100 µM
same,TGI,MDA-MB-231 breast,> 100 µM
same,TGI,MDA-N,> 100 µM
same,TGI,MOLT-4 leukemia,> 100 µM
same,TGI,NCI-H226 lung,> 100 µM
same,TGI,NCI-H23 lung,> 100 µM
same,TGI,NCI-H460 lung,> 100 µM
same,TGI,NCI/ADR-RES ovarian,> 100 µM
same,TGI,OVCAR-3 ovarian,> 100 µM
same,TGI,OVCAR-4 ovarian,> 100 µM
same,TGI,OVCAR-5 ovarian,> 100 µM
same,TGI,OVCAR-8 ovarian,> 100 µM
same,TGI,PC-3 prostate,> 100 µM
same,TGI,RPMI-8226 leukemia,> 100 µM
same,TGI,RXF 393 renal,> 100 µM
same,TGI,SF-268 CNS,91.1 µM
same,TGI,SF-295 CNS,> 100 µM
same,TGI,SF-539 CNS,> 100 µM
same,TGI,SK-MEL-2 melanoma,> 100 µM
same,TGI,SK-MEL-28 melanoma,> 100 µM
same,TGI,SK-MEL-5 melanoma,> 100 µM
same,TGI,SK-OV-3 ovarian,> 100 µM
same,TGI,SN12C renal,> 100 µM
same,TGI,SNB-19 CNS,> 100 µM
same,TGI,SNB-75 CNS,> 100 µM
same,TGI,SR leukemia,> 100 µM
same,TGI,SW-620 colon,> 100 µM
same,TGI,T-47D breast,> 100 µM
same,TGI,TK-10 renal,> 100 µM
same,TGI,U251 CNS,> 100 µM
same,TGI,UACC-257 melanoma,> 100 µM
same,TGI,UACC-62 melanoma,> 100 µM
same,TGI,UO-31 renal,> 100 µM
